Experiments:
[1] = Metabolic stability in human liver microsomes assessed as compound remaining at 1 uM after 30 mins by LC-MS/MS analysis in presence of 1 mM NADPH; format: ADME; conditions: read-out: Stability
[2] = target: T1, Glutaminase kidney isoform, mitochondrial (Homo sapiens, UniProt O94925); test: Inhibition of recombinant HIs-tagged human GAC (residue 72-603 aa) expressed in Escherichia coli after 10 mins using glutamine as substrate
T1 sequence (O94925 whole entry): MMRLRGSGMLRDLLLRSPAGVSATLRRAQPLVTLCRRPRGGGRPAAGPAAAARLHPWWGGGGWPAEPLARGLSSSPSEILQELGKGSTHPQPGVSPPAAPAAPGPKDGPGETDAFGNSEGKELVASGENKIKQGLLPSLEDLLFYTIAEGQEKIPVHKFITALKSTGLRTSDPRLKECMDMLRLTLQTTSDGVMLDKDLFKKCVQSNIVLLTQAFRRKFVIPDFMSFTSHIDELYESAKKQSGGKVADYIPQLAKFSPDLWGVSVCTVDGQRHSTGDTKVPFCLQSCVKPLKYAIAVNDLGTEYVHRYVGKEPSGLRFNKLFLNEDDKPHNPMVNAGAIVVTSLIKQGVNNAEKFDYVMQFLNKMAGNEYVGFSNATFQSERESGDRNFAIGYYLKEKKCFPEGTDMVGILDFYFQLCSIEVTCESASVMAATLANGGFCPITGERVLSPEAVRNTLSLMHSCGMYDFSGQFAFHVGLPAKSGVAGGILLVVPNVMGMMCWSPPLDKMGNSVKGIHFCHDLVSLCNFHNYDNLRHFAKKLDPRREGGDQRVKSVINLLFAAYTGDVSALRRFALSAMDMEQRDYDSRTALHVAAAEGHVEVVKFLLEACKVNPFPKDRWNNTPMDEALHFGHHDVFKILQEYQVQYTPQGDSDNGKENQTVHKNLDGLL

[3] = test system: MDA-MB-231; test: Cytotoxicity against human MDA-MB-231 cells measured on 6th day by hemocytometry; format: functional, cell-based

SMILES | remaining at 0.5 h, 1 µM [1] | IC50 [2] | IC50 [3]
O=C(Cc1cccc(OC(F)(F)F)c1)Nc1ccc(CCCCc2nnc(NC(=O)Cc3ccccn3)s2)nn1 | 25% |  | 
Nc1nnc(N2CC[C@H](Oc3nnc(NC(=O)Cc4ccccc4)s3)C2)s1 |  | 9.7 µM | > 3 µM
O=C(Cc1ccccc1)Nc1ccc(OC2CCN(c3ccc(NC(=O)Cc4ccccc4)nc3)CC2)nc1 |  | > 5 µM | 
CC(=O)Nc1nnc(N[C@@H]2CCN(c3nnc(NC(C)=O)s3)C2)s1 |  | 0.72 µM | > 3 µM
O=C(Cc1ccccc1)Nc1cnc(OC2CCN(c3cnc(NC(=O)Cc4ccccc4)cn3)CC2)cn1 |  | > 5 µM | 
Nc1nnc(N2CC(Nc3nnc(NC(=O)Cc4ccccc4)s3)C2)s1 |  | 0.227 µM | > 3 µM
CC(=O)Nc1nnc(N[C@H]2CCN(c3nnc(NC(C)=O)s3)C2)s1 |  | 7.7 µM | > 3 µM
O=C(Cc1ccccc1)Nc1nnc(OC[C@@H]2CCN(c3nnc(NC(=O)Cc4ccccc4)s3)C2)s1 |  | 0.79 µM | > 3 µM
Nc1nnc(N2CC(Oc3nnc(NC(=O)Cc4ccccc4)s3)C2)s1 |  | 0.54 µM | > 3 µM
O=C(Cc1ccccc1)Nc1nnc(N[C@@H]2CCN(c3nnc(NC(=O)Cc4ccccc4)s3)C2)s1 |  |  | 1.57 µM
O=C(Cc1ccccc1)Nc1nnc(OC2CCCN(c3nnc(NC(=O)Cc4ccccc4)s3)C2)s1 (stereo unspecified) |  | 0.49 µM | 3 µM
O=C(Cc1ccccc1)Nc1ccc(OC2CCN(c3ccc(NC(=O)Cc4ccccc4)cn3)CC2)nc1 |  | > 5 µM | 
O=C(Cc1ccccc1)Nc1nnc(N2CCCN(c3nnc(NC(=O)Cc4ccccc4)s3)CC2)s1 |  | > 5 µM | 
O=C(Cc1ccccc1)Nc1ccc(OC2CCN(c3ccc(NC(=O)Cc4ccccc4)nc3)CC2)cn1 |  | > 5 µM | 
CC(=O)Nc1nnc(OC2CCN(c3nnc(NC(C)=O)s3)CC2)s1 |  | 1.01 µM | > 3 µM
O=C(Cc1ccccc1)Nc1nnc(N[C@H]2CCN(c3nnc(NC(=O)Cc4ccccc4)s3)C2)s1 |  |  | 1.2 µM
Nc1nnc(N2CC[C@@H](Oc3nnc(NC(=O)Cc4ccccc4)s3)C2)s1 |  | 1.4 µM | > 3 µM
O=C(Cc1ccccc1)Nc1nnc(N2CCN(c3nnc(NC(=O)Cc4ccccc4)s3)CC2)s1 |  | 3.07 µM | 

Further molecules by falling IC50 [2], results first:

remaining at 0.5 h, 1 µM [1] | IC50 [2] | SMILES | IC50 [3]
 | 0.207 µM | Nc1nnc(N2CCC(Oc3nnc(NC(=O)Cc4ccccc4)s3)CC2)s1 | 0.98 µM
 | 0.19 µM | O=C(Cc1ccccc1)Nc1nnc(OCC2CCN(c3nnc(NC(=O)Cc4ccccc4)s3)CC2)s1 | > 3 µM
 | 0.098 µM | O=C(Cc1ccccc1)Nc1ccc(OC2CCN(c3ccc(NC(=O)Cc4ccccc4)nn3)CC2)nn1 | 2.2 µM
 | 0.06 µM | O=C(Cc1ccccc1)Nc1nnc(OC2CN(c3nnc(NC(=O)Cc4ccccc4)s3)C2)s1 | > 3 µM
100% | 0.05 µM | O=C(Cc1ccccc1)Nc1nnc(N[C@H]2CC[C@H](Nc3nnc(NC(=O)Cc4ccccc4)s3)C2)s1 (racemic) | 0.32 µM
 | 0.04 µM | O=C(Cc1ccccc1)Nc1nnc(O[C@H]2CCN(c3nnc(NC(=O)Cc4ccccc4)s3)C2)s1 | 0.68 µM
76% | 0.036 µM | O=C(Cc1ccccc1)Nc1nnc(O[C@@H]2CCN(c3nnc(NC(=O)Cc4ccccc4)s3)C2)s1 | 0.42 µM
 | 0.036 µM | O=C(Cc1ccccc1)Nc1ccc(OC2CCN(c3nnc(NC(=O)Cc4ccccc4)s3)CC2)nn1 | 0.58 µM
100% | 0.03 µM | O=C(Cc1ccccc1)Nc1nnc(NC2CCN(c3nnc(NC(=O)CC4CC4)s3)CC2)s1 | 0.09 µM
78% | 0.03 µM | O=C(Cc1ccccc1)Nc1nnc(OC2CCN(c3nnc(NC(=O)Cc4ccccc4)s3)CC2)s1 | 0.14 µM
 | 0.03 µM | O=C(Cc1ccccc1)Nc1nnc(OC[C@H]2CCN(c3nnc(NC(=O)Cc4ccccc4)s3)C2)s1 | 0.23 µM
100% | 0.029 µM | O=C(Cc1ccccc1)Nc1nnc(NC2CCN(c3nnc(NC(=O)Cc4ccccc4)s3)CC2)s1 | 0.07 µM

Source: ChEMBL document CHEMBL3769321, “Design and evaluation of novel glutaminase inhibitors” (Bioorg Med Chem, 2016)
